US10786521B2, “Methods and compositions for treatment of COPD diseases” (Shanghai KE Pharmaceutical Co., LTD, priority 2014, dated 2020)

Tested on: airway smooth muscle (bronchial rings)
Experiment: Relaxation of evoked isometric force of bronchial rings (wire myograph)
Format: cell-based, mice
Protocol: Briefly, the entire respiratory tree was rapidly removed and immersed in Krebs-Henseleit buffer (118.1 mM NaCl, 4.7 mM KCl, 1.2 mM MgSO4, 2.5 mM CaCl2, 1.0 mM NaH2PO4, 25 mM NaHCO3 and 11.1 mM glucose, pH 7.4). Bronchial rings, 2 mm in length, were isolated from pulmonary bronchi using a dissection microscope. Then the bronchial segments were mounted in a small-vessel wire myograph chamber (Danish Myo Technology, Aarhus, Denmark) by threading on two steel wires (40 μm in diameter) secured to two supports. One support was attached to a force transducer for measurements of isometric force development, and the other was attached to a micrometer controlling ring circumference. The preparation was kept in the chamber, immersed in 5 ml of Krebs-Henseleit solution, bubbled with 5% CO2 and 95% O2 and maintained at 37° C. The initial isometric tension of bronchial ring was set to 0 mN prior to equilibration for 20 min. The bronchial ring was then stretched in order to keep the force at 5 mN followed by an additional equilibration for 20 min. The isometric forces produced by bronchial ring was recorded with a data acquisition and analysis program (Danish Myo Technology, Aarhus, Denmark).
The robust relaxation effect and low risk of toxicity of KE on airway smooth muscle indicates its promising prospects for development. To identify the active ingredients of KE, the KE was divided into three parts including EtOAc phase, n-BuOH phase and water phase using EtOAc and n-BuOH sequential extraction. Upon the airway smooth muscle rings reached a relative steady contraction state evoked by MCh, accumulated volume of these three phases was added to assess the relaxation capacity. […] On the other hand, 1 μL of EtOAc phase just relaxed the rings to 90%.
Their dose-responsive effect on relaxation of airway smooth muscle was measured. When the force evoked by acetylcholine reached a relatively steady state, kudinosides were added to the bath in cumulative concentrations (0.1 μM, 0.3 μM, 1 μM, 3 μM, 10 μM, 30 μM). […] When the concentration of kudinoside D increased to 10 μM, about 50% of the force was relaxed. Strikingly, upon treatment with 30 μM of kudinoside D, more than 80% of the force was relaxed (FIG. 5B). Similarly, 30 μM of kudinoside A also led to 80% inhibition of evoked force. Note that the relaxation effect of kudinosides was completely reversible, because the relaxed muscles restored response to MCh after washing off.

## C[C@@H]1O[C@@H](O[C@H]2[C@H](O[C@H]3CC[C@@]4(C)C(CC[C@]5(C)C4C=CC4=C6[C@]7(CC[C@](C)(OC7=O)[C@@]6(C)O)CC[C@]45C)C3(C)C)OC[C@H](O)[C@@H]2O[C@@H]2O[C@H](CO)[C@@H](O)[C@H](O)[C@H]2O)[C@H](O)[C@H](O)[C@H]1O (stereo partly drawn) [Kudinoside D]
Force evoked by acetylcholine, cumulative concentrations, 10 μM
  force relaxed at 10 μM: about 50%
Force evoked by acetylcholine, cumulative concentrations, 30 μM
  force relaxed / inhibition of evoked force at 30 μM: more than 80%
In vitro, concentration not given
  relaxation of evoked force of airway smooth muscle / bronchial rings: significantly relaxed bronchial rings in a dose-dependent manner
